The results in this text go back to patent publication US9399626B2, “2-thiopyrimidinones” (Pfizer Inc., priority 2011, dated 2016).

Structures can show the parent of a compound that is named as a salt.

In the first test the target is T1, MPO (purified from human polynuclear leukocytes) (Homo sapiens, UniProt P05164).
T1 construct: purified from human polynuclear leukocytes; purchased Calbiochem/EMD Biosciences; host or cells: human polynuclear leukocytes (natural source)
T1 sequence (P05164 279-745 limits assumed): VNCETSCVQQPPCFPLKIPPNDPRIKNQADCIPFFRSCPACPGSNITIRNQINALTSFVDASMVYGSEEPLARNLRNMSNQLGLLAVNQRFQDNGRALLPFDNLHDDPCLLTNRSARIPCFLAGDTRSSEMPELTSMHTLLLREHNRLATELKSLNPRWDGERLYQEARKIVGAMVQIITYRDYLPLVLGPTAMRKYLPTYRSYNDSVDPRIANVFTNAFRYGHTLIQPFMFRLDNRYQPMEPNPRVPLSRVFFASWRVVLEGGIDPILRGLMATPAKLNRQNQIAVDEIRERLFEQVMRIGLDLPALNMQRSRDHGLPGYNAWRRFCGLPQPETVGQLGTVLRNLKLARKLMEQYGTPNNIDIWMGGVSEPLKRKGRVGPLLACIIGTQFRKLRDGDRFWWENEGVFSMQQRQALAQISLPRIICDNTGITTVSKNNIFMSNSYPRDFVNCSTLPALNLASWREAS
T1 sequence (P05164 165-273 limits assumed): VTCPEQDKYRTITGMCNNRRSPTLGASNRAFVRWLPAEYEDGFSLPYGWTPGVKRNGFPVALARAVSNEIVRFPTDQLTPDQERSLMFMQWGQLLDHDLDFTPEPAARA
The test is described as follows: MPO Amplex Red Activity Assay. It is filed as biochemical. The settings on record: Table 1, 2 μM H2O2, pH 7.4. An outline of the steps:
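Potency is given as kinact/KI: kobs values from 600 s progress curves, minus the uninhibited rate, are fit against inhibitor concentration. Reactions use 2 μM H2O2, 30 μM Amplex Red, pH 7.4 phosphate buffer with NaCl, DTPA and 2% DMSO, started with […] human MPO. Readout is resorufin fluorescence, catalase background subtracted.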
For `COc1ccc(-c2cc(=O)[nH]c(=S)n2CCNC(=O)CN)c(OC)c1` [Example 8, 2-amino-N-(2-(6-(2,4-dimethoxyphenyl)-4-oxo-2-thioxo-3,4-dihydropyrimidin-1(2H)-yl)ethyl)acetamide hydrochloride], the “MPO kinact/Ki” value was 12100 1/s per M.

Consider `COCCn1c(-c2ccc3[nH]ccc3c2)cc(=O)[nH]c1=S` [Example 303, 6-(1H-indol-5-yl)-1-(2-methoxyethyl)-2-thioxo-2,3-dihydropyrimidin-4(1H)-one], for which the “MPO kinact/Ki” value is on record as 5270 1/s per M.

Consider `COc1ccc(-c2cc(=O)[nH]c(=S)n2CC2CCCN2C(=O)CN)c(OC)c1` (centres unmarked) [Example 262, 6-(2,4-dimethoxyphenyl)-1-[(1-glycylpyrrolidin-2-yl)methyl]-2-thioxo-2,3-dihydropyrimidin-4(1H)-one hydrochloride], for which the “MPO kinact/Ki” value is recorded as 1730 1/s per M.

Turning to `COCCn1c(-c2ccc(OC)cc2)cc(=O)[nH]c1=S` [Example 294, 1-(2-methoxyethyl)-6-(4-methoxyphenyl)-2-thioxo-2,3-dihydropyrimidin-4(1H)-one], the “MPO kinact/Ki” value is recorded as 1910 1/s per M.

With `NCCn1c(-c2ccccc2OCCO)cc(=O)[nH]c1=S` [Example 53, 1-(2-aminoethyl)-6-[2-(2-hydroxyethoxy)phenyl]-2-thioxo-2,3-dihydropyrimidin-4(1H)-one hydrochloride], the “MPO kinact/Ki” value is listed as 3290 1/s per M.

`COCCn1c(-c2ccc(Cl)cc2)cc(=O)[nH]c1=S` [Example 298, 6-(4-chlorophenyl)-1-(2-methoxyethyl)-2-thioxo-2,3-dihydropyrimidin-4(1H)-one]: the “MPO kinact/Ki” value was 1080 1/s per M.

As to `COc1ccc(OC)c(-c2cc(=O)[nH]c(=S)n2CCCN=C(N)N)c1` [Example 131, 2-{3-[6-(2,5-dimethoxyphenyl)-4-oxo-2-thioxo-3,4-dihydropyrimidin-1(2H)-yl]propyl} guanidine trifluoroacetate], the “MPO kinact/Ki” value is 14500 1/s per M.

Turning to `COc1ccc(-c2cc(=O)[nH]c(=S)n2CCCO)c(OC)c1` [Example 181, 6-(2,4-dimethoxyphenyl)-1-(3-hydroxypropyl)-2-thioxo-2,3-dihydropyrimidin-4(1H)-one], the “MPO kinact/Ki” value is recorded as 7160 1/s per M.

With `COCCn1c(-c2cccnc2)cc(=O)[nH]c1=S` [Example 279, 1-(2-methoxyethyl)-6-pyridin-3-yl-2-thioxo-2,3-dihydropyrimidin-4(1H)-one], the “MPO kinact/Ki” value was 386 1/s per M.

As for `COc1ccc(-c2cc(=O)[nH]c(=S)n2CCC(=O)N(C)C)c(OC)c1` [Example 237, 3-[6-(2,4-dimethoxyphenyl)-4-oxo-2-thioxo-3,4-dihydropyrimidin-1(2H)-yl]-N,N-dimethylpropanamide], the “MPO kinact/Ki” value was 2360 1/s per M.

Turning to `COc1ccc(-c2cc(=O)[nH]c(=S)n2CCS(N)(=O)=O)c(OC)c1` [Example 248, 2-[6-(2,4-dimethoxyphenyl)-4-oxo-2-thioxo-3,4-dihydropyrimidin-1(2H)-yl]ethanesulfonamide], the “MPO kinact/Ki” value is on record as 3590 1/s per M.

Regarding `O=c1cc(-c2cccc3c2OCCO3)n(CCO)c(=S)[nH]1` [Example 47, 6-(2,3-dihydro-1,4-benzodioxin-5-yl)-1-(2-hydroxyethyl)-2-thioxo-2,3-dihydropyrimidin-4(1H)-one], the “MPO kinact/Ki” value was 2340 1/s per M.

As to `CNC(=O)Cn1c(-c2ccc(OC)cc2OC)cc(=O)[nH]c1=S` [Example 190, 2-[6-(2,4-dimethoxyphenyl)-4-oxo-2-thioxo-3,4-dihydropyrimidin-1(2H)-yl]-N-methylacetamide], the “MPO kinact/Ki” value is reported as 4090 1/s per M.

For the molecule `CCOC(=O)CCn1c(-c2ccc(OC)cc2OC)cc(=O)[nH]c1=S` [Example 240, ethyl 3-[6-(2,4-dimethoxyphenyl)-4-oxo-2-thioxo-3,4-dihydropyrimidin-1(2H)-yl]propanoate], the “MPO kinact/Ki” value is reported as 7070 1/s per M.

Take `NC(=O)Cn1c(-c2cc3ccccc3s2)cc(=O)[nH]c1=S` [Example 69, 2-[6-(1-benzothien-2-yl)-4-oxo-2-thioxo-3,4-dihydropyrimidin-1(2H)-yl]acetamide]: the “MPO kinact/Ki” value was 4250 1/s per M.

In the case of `COc1ccc(-c2cc(=O)[nH]c(=S)n2CCCN(C)C)c(OC)c1` [Example 220, 6-(2,4-dimethoxyphenyl)-1-[3-(dimethylamino)propyl]-2-thioxo-2,3-dihydropyrimidin-4(1H)-one], the “MPO kinact/Ki” value is on record as 2420 1/s per M.

Take `COCCn1c(-c2ccc(N(C)C)nc2)cc(=O)[nH]c1=S` [Example 165, 6-[6-(dimethylamino)pyridin-3-yl]-1-(2-methoxyethyl)-2-thioxo-2,3-dihydropyrimidin-4(1H)-one]: the “MPO kinact/Ki” value is 1280 1/s per M.

Take `COCCn1c(-c2cccnc2OC)cc(=O)[nH]c1=S` [Example 23, 1-(2-methoxyethyl)-6-(2-methoxypyridin-3-yl)-2-thioxo-2,3-dihydropyrimidin-4(1H)-one]: the “MPO kinact/Ki” value is given as 991 1/s per M.

Take `COc1ccc(-c2cc(=O)[nH]c(=S)n2CC(C)CO)c(OC)c1` (centres unmarked) [Example 195, 6-(2,4-dimethoxyphenyl)-1-(3-hydroxy-2-methylpropyl)-2-thioxo-2,3-dihydropyrimidin-4(1H)-one]: the “MPO kinact/Ki” value is listed as 5350 1/s per M.

As to `COc1cc2ccccc2cc1-c1cc(=O)[nH]c(=S)n1CCO` [Example 100, 1-(2-hydroxyethyl)-6-(3-methoxy-2-naphthyl)-2-thioxo-2,3-dihydropyrimidin-4(1H)-one], the “MPO kinact/Ki” value is listed as 16100 1/s per M.

Take `COc1ccc(-c2cc(=O)[nH]c(=S)n2CCCCO)c(OC)c1` [Example 196, 6-(2,4-dimethoxyphenyl)-1-(4-hydroxybutyl)-2-thioxo-2,3-dihydropyrimidin-4(1H)-one]: the “MPO kinact/Ki” value was 5640 1/s per M.

For `COCCn1c(-c2ccc(F)cc2)cc(=O)[nH]c1=S` [Example 290, 6-(4-fluorophenyl)-1-(2-methoxyethyl)-2-thioxo-2,3-dihydropyrimidin-4(1H)-one], the “MPO kinact/Ki” value is listed as 1890 1/s per M.

As to `CCOC(=O)C(C)n1c(-c2ccc(OC)cc2OC)cc(=O)[nH]c1=S` (centres unmarked) [Example 239, ethyl 2-[6-(2,4-dimethoxyphenyl)-4-oxo-2-thioxo-3,4-dihydropyrimidin-1(2H)-yl]propanoate], the “MPO kinact/Ki” value is listed as 1850 1/s per M.

Turning to `NC(=O)Cn1c(-c2ccccc2OC(F)(F)F)cc(=O)[nH]c1=S` [Example 208, 2-{4-oxo-2-thioxo-6-[2-(trifluoromethoxy)phenyl]-3,4-dihydropyrimidin-1(2H)-yl}acetamide], the “MPO kinact/Ki” value was 3760 1/s per M.

For `CNC(=O)c1cccc(-c2cc(=O)[nH]c(=S)n2CCOC)c1` [Example 325, 3-[3-(2-methoxyethyl)-6-oxo-2-thieno-1,2,3,6-tetrahydropyrimidin-4-yl]-N-methylbenzamide], the “MPO kinact/Ki” value is 1160 1/s per M.

Turning to `COc1cc(-c2cc(=O)[nH]c(=S)n2CCCN)c(OC)cc1C` [Example 106, 1-(3-aminopropyl)-6-(2,5-dimethoxy-4-methylphenyl)-2-thioxo-2,3-dihydropyrimidin-4(1H)-one hydrochloride], the “MPO kinact/Ki” value is 10500 1/s per M.

The test is the same for the next values; noted with them: Table 1A, 2 μM H2O2, pH 7.4.
On to `COc1ccc(-c2cc(=O)[nH]c(=S)n2CC(N)=O)cc1` [Example 410, 2-[6-(4-methoxyphenyl)-4-oxo-2-thioxo-3,4-dihydropyrimidin-1(2H)-yl]acetamide], for which the “MPO kinact/Ki” value was 3150 1/s per M.

As for `COc1ccc(-c2cc(=O)[nH]c(=S)n2CC(=O)N[C@@H](C)CN)c(OC)c1` [Example 394, N-[(2S)-1-aminopropan-2-yl]-2-[6-(2,4-dimethoxyphenyl)-4-oxo-2-thioxo-3,4-dihydropyrimidin-1(2H)-yl]acetamide], the “MPO kinact/Ki” value was 4020 1/s per M.

As to `COc1ccc(F)cc1-c1cc(=O)[nH]c(=S)n1CCCN(C)C(=N)N` [Example 375, 1-{3-[6-(5-fluoro-2-methoxyphenyl)-4-oxo-2-thioxo-3,4-dihydropyrimidin-1(2H)yl]propyl}-1-methylguanidine], the “MPO kinact/Ki” value is given as 11300 1/s per M.

Turning to `COc1cc(OCC(N)=O)ccc1-c1cc(=O)[nH]c(=S)n1CCN` [Example 423, 2-{4-[3-(2-aminoethyl)-6-oxo-2-thioxo-1,2,3,6-tetrahydropyrimidin-4-yl]-3-methoxyphenoxy}acetamide], the “MPO kinact/Ki” value is listed as 3290 1/s per M.

`COc1cccc(OC)c1-c1cc(=O)[nH]c(=S)n1CC(N)=O` [Example 386, 2-[6-(2,6-dimethoxyphenyl)-4-oxo-2-thioxo-3,4-dihydropyrimidin-1(2H)-yl}acetamide]: the “MPO kinact/Ki” value is given as 4960 1/s per M.

`CNCCCn1c(-c2cc(F)ccc2OC)cc(=O)[nH]c1=S` [Example 374, 6-(5-fluoro-2-methoxyphenyl)-1-[3-(methylamino)propyl]-2-thioxo-2,3-dihydropyrimidin-4(1H)-one]: the “MPO kinact/Ki” value is listed as 4600 1/s per M.

Consider `COc1ccc(-c2cc(=O)[nH]c(=S)n2CC(=O)NCCNCC2CC2)c(OC)c1` [Example 445, N-{2-[(cyclopropylmethyl)amino]ethyl}-2-[6-(2,4-dimethoxyphenyl)-4-oxo-2-thioxo-3,4-dihydropyrimidin-1(2H)-yl]acetamide], for which the “MPO kinact/Ki” value is 7350 1/s per M.

For `O=c1cc(-c2cc(F)ccc2OCCO)n(CCO)c(=S)[nH]1` [Example 411, 6-[5-fluoro-2-(2-hydroxyethoxy)phenyl]-1-(2-hydroxyethyl)-2-thioxo-2,3-dihydropyrimidin-4(1H)-one], the “MPO kinact/Ki” value is on record as 15000 1/s per M.

Turning to `NC(=O)Cn1c(-c2cccc3c2OCCO3)cc(=O)[nH]c1=S` [Example 363, 2-[6-(2,3-dihydro-1,4-benzodioxin-5-yl)-4-oxo-2-thioxo-3,4-dihydropyrimidin-1(2H)-yl]acetamide], the “MPO kinact/Ki” value is on record as 9680 1/s per M.
